These results are taken from ChEMBL document CHEMBL1201862, “PubChem BioAssay data set” (2004).

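Growth conditions: 96-well plates. Treatment: test compound, 48 hours, 5 concentrations. Analysis: linear interpolation between bracketing concentrations; unreached endpoints set to highest concentration. The concentration for 50% growth inhibition is given as GI50.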 Calls of active or inactive are those of the source. Rule as the data show it: active = GI50 up to about 1.1 µM and inactive = higher.

What all share (assay): NCI-60 cell line screen, 48 h
Assay [1] concerns COLO 205.
Assay [2] concerns OVCAR-4.
Assay [3] deals with ACHN.
Assay [4] relates to UACC-257.
Assay [5] deals with OVCAR-5.
Assay [6] has as its system HT-29.
Assay [7] concerns 786-0.
In assay [8] the test system is T47D.
Assay [9] concerns OVCAR-8.
Assay [10] has as its system HL-60.
The test system of assay [11] is KM12.
Assay [12] concerns SK-MEL-28.
Assay [13] has as its system HCT-15.
For assay [14], the system named is NCI-H522.
For assay [15], the system named is SF-539.
The test system of assay [16] is TK-10.
The subject of assay [17] is CCRF-CEM.
The test system of assay [18] is U-251.
Assay [19] deals with UO-31.
Assay [20] deals with SNB-19.

Take `O=C1NC(SSC2=NNC3(C(=O)N2)c2ccccc2-c2ccccc23)=NNC12c1ccccc1-c1ccccc12`: the GI50 in [1], in [2], in assay [3], in assay [4], in assay [5] and in assay [6] was > 10 µM (inactive) throughout. Moreover, the GI50 in assay [7], in assay [8], in [9], in assay [10], in [11] and in assay [12] was > 10 µM (inactive) throughout. Besides, the GI50 in [13] is > 10 µM; in assay [14] it was > 10 µM (inactive); in [15], > 10 µM (inactive); in assay [16], > 10 µM (inactive); in assay [17] it was > 10 µM (inactive); in assay [18] it was > 10 µM (inactive). The GI50 in assay [19] and in assay [20] was > 10 µM (inactive) each time.
Take `NC(=O)c1ccc(/N=N/O)nc1`: the GI50 in assay [1], in assay [2], in assay [3], in assay [4], in assay [5] and in [6] was > 100 µM (inactive) throughout. In addition, the GI50 in [7], in assay [8], in assay [9], in [10], in assay [11] and in [12] was > 100 µM (inactive) throughout. The GI50 in assay [13] is > 100 µM; in assay [14], > 100 µM (inactive); in [15] it was > 100 µM (inactive); in [16] it was > 100 µM (inactive); in assay [17], > 100 µM (inactive); in [18], > 100 µM (inactive). Further, the GI50 in assay [19] and in assay [20] was > 100 µM (inactive) in each case.
For `COc1ccc(OC)c(/C=C/c2cnnc3ccccc23)c1`, the GI50 in [1] was 4.1 µM (inactive); in [2], 5.48 µM (inactive); in assay [3], > 10 µM (inactive); in assay [4], 3.39 µM (inactive); in assay [5], > 10 µM (inactive); in [6], 5.31 µM (inactive). The GI50 in [7] is 6.67 µM (inactive); in assay [8], > 10 µM (inactive); in assay [9] it was 7.5 µM (inactive); in [10] it was 2.79 µM (inactive); in [11] it was 2.8 µM (inactive); in assay [12], 8.47 µM (inactive). For the same compound, the GI50 in [13] is 1.96 µM; in assay [14], 3.66 µM (inactive); in assay [15] it was 2.39 µM (inactive); in assay [16], > 10 µM (inactive); in assay [17], 3.38 µM (inactive); in assay [18], 5.19 µM (inactive). Moreover, the GI50 in assay [19] is 5.08 µM (inactive); in assay [20], 6.46 µM (inactive).
